{
  "source": "ChEMBL document CHEMBL2163283",
  "about": "“Design and synthesis of novel stiripentol analogues as potential anticonvulsants” (Eur J Med Chem, 2012)",
  "key": {"Mus musculus [1]": {"tested_on": "Mus musculus", "assay": "Anticonvulsant activity in Swiss albino mouse assessed as protection against subcutaneous pentylenetetrazol-induced seizures at 390 umol/kg, ip administered 30 mins before pentylenetetrazole challenge measured after 30 mins", "assay_type": "functional"}, "Mus musculus [2]": {"tested_on": "Mus musculus", "assay": "Anticonvulsant activity in Swiss albino mouse assessed as protection against subcutaneous pentylenetetrazol-induced seizures at 390 umol/kg, ip administered 30 mins before pentylenetetrazole challenge measured after 30 mins relative to stiripentol", "assay_type": "functional"}, "Mus musculus [3]": {"tested_on": "Mus musculus", "assay": "Anticonvulsant activity in Swiss albino mouse assessed as maximal electroshock-induced seizures at 390 umol/kg, ip administered 30 mins before electroshock challenge", "assay_type": "functional, organism-based"}, "Mus musculus [4]": {"tested_on": "Mus musculus", "assay": "Anticonvulsant activity in Swiss albino mouse assessed as protection against subcutaneous pentylenetetrazol-induced seizures at 410 umol/kg, ip administered 30 mins before pentylenetetrazole challenge measured after 30 mins relative to stiripentol", "assay_type": "functional"}, "Mus musculus [5]": {"tested_on": "Mus musculus", "assay": "Anticonvulsant activity in Swiss albino mouse assessed as protection against subcutaneous pentylenetetrazol-induced seizures at 410 umol/kg, ip administered 30 mins before pentylenetetrazole challenge measured after 30 mins", "assay_type": "functional"}, "Mus musculus [6]": {"tested_on": "Mus musculus", "assay": "Anticonvulsant activity in Swiss albino mouse assessed as maximal electroshock-induced seizures at 410 umol/kg, ip administered 30 mins before electroshock challenge", "assay_type": "functional"}, "Mus musculus [7]": {"tested_on": "Mus musculus", "assay": "Anticonvulsant activity in Swiss albino mouse assessed as protection against subcutaneous pentylenetetrazol-induced seizures at 108 umol/kg, ip administered 30 mins before pentylenetetrazole challenge measured after 30 mins", "assay_type": "functional"}, "Mus musculus [8]": {"tested_on": "Mus musculus", "assay": "Anticonvulsant activity in Swiss albino mouse assessed as protection against subcutaneous pentylenetetrazol-induced seizures at 357 umol/kg, ip administered 30 mins before pentylenetetrazole challenge measured after 30 mins", "assay_type": "functional"}, "Mus musculus [9]": {"tested_on": "Mus musculus", "assay": "Anticonvulsant activity in Swiss albino mouse assessed as protection against subcutaneous pentylenetetrazol-induced seizures at 357 umol/kg, ip administered 30 mins before pentylenetetrazole challenge measured after 30 mins relative to stiripentol", "assay_type": "functional"}, "Mus musculus [10]": {"tested_on": "Mus musculus", "assay": "Anticonvulsant activity in Swiss albino mouse assessed as maximal electroshock-induced seizures at 357 umol/kg, ip administered 30 mins before electroshock challenge", "assay_type": "functional"}, "Mus musculus [11]": {"tested_on": "Mus musculus", "assay": "Anticonvulsant activity in Swiss albino mouse assessed as protection against subcutaneous pentylenetetrazol-induced seizures at 340 umol/kg, ip administered 30 mins before pentylenetetrazole challenge measured after 30 mins", "assay_type": "functional"}, "Mus musculus [12]": {"tested_on": "Mus musculus", "assay": "Anticonvulsant activity in Swiss albino mouse assessed as protection against subcutaneous pentylenetetrazol-induced seizures at 340 umol/kg, ip administered 30 mins before pentylenetetrazole challenge measured after 30 mins relative to stiripentol", "assay_type": "functional"}, "Mus musculus [13]": {"tested_on": "Mus musculus", "assay": "Anticonvulsant activity in Swiss albino mouse assessed as maximal electroshock-induced seizures at 340 umol/kg, ip administered 30 mins before electroshock challenge", "assay_type": "functional"}, "Mus musculus [14]": {"tested_on": "Mus musculus", "assay": "Anticonvulsant activity in Swiss albino mouse assessed as protection against subcutaneous pentylenetetrazol-induced seizures at 420 umol/kg, ip administered 30 mins before pentylenetetrazole challenge measured after 30 mins", "assay_type": "functional"}, "Mus musculus [15]": {"tested_on": "Mus musculus", "assay": "Anticonvulsant activity in Swiss albino mouse assessed as protection against subcutaneous pentylenetetrazol-induced seizures at 420 umol/kg, ip administered 30 mins before pentylenetetrazole challenge measured after 30 mins relative to stiripentol", "assay_type": "functional"}, "Mus musculus [16]": {"tested_on": "Mus musculus", "assay": "Anticonvulsant activity in Swiss albino mouse assessed as maximal electroshock-induced seizures at 420 umol/kg, ip administered 30 mins before electroshock challenge", "assay_type": "functional, organism-based"}, "Mus musculus [17]": {"tested_on": "Mus musculus", "assay": "Anticonvulsant activity in Swiss albino mouse assessed as protection against subcutaneous pentylenetetrazol-induced seizures at 346 umol/kg, ip administered 30 mins before pentylenetetrazole challenge measured after 30 mins", "assay_type": "functional"}, "Mus musculus [18]": {"tested_on": "Mus musculus", "assay": "Anticonvulsant activity in Swiss albino mouse assessed as protection against subcutaneous pentylenetetrazol-induced seizures at 346 umol/kg, ip administered 30 mins before pentylenetetrazole challenge measured after 30 mins relative to stiripentol", "assay_type": "functional"}, "Mus musculus [19]": {"tested_on": "Mus musculus", "assay": "Anticonvulsant activity in Swiss albino mouse assessed as maximal electroshock-induced seizures at 346 umol/kg, ip administered 30 mins before electroshock challenge", "assay_type": "functional"}, "Mus musculus [20]": {"tested_on": "Mus musculus", "assay": "Anticonvulsant activity in ip dosed Swiss albino mouse assessed as maximal electroshock-induced seizures administered 30 mins before electroshock challenge", "assay_type": "functional"}, "Mus musculus [21]": {"tested_on": "Mus musculus", "assay": "Neurotoxicity in Swiss albino mouse assessed as effect on hindlimb grip strength at 346 umol/kg, sc administered measured every 15 mins for 2 hrs", "assay_type": "toxicity, organism-based", "details": "in vivo"}, "Mus musculus [22]": {"tested_on": "Mus musculus", "assay": "Neurotoxicity in Swiss albino mouse assessed as climbing response to inverted mesh at 346 umol/kg, sc administered measured every 15 mins for 2 hrs by wire mesh grasping test", "assay_type": "toxicity, organism-based", "details": "in vivo"}, "Mus musculus [23]": {"tested_on": "Mus musculus", "assay": "Anticonvulsant activity in Swiss albino mouse assessed as protection against subcutaneous pentylenetetrazol-induced seizures at 159 umol/kg, ip administered 30 mins before pentylenetetrazole challenge measured after 30 mins", "assay_type": "functional, organism-based"}, "Mus musculus [24]": {"tested_on": "Mus musculus", "assay": "Anticonvulsant activity in Swiss albino mouse assessed as maximal electroshock-induced seizures at 159 umol/kg, ip administered 30 mins before electroshock challenge", "assay_type": "functional"}},
  "note": "The source made the active and inactive calls. The rule behind the calls is not given here.",
  "data": [
    {"smiles": "CC(C)(C)C1=NN(C(=O)Nc2ccc(F)cc2)C(c2ccc3c(c2)OCO3)C1", "note": "(racemic)", "values": [
      {"measurement": "Activity", "setting": "Mus musculus [1]", "value": 33, "unit": "%"},
      {"measurement": "Activity", "setting": "Mus musculus [2]", "value": "1.09 ratio to stiripentol"},
      {"measurement": "Activity", "setting": "Mus musculus [3]", "value": "inactive"}
    ]},
    {"smiles": "CC(C)(C)C(/C=C/c1ccc2c(c1)OCO2)=N/NC(=O)Nc1ccccc1", "values": [
      {"measurement": "Activity", "setting": "Mus musculus [4]", "value": 1.3, "unit": "%"},
      {"measurement": "Activity", "setting": "Mus musculus [5]", "value": 66, "unit": "%"},
      {"measurement": "Activity", "setting": "Mus musculus [6]", "value": "inactive"}
    ]},
    {"smiles": "Cc1ccccc1C(=O)N1N=C(C(C)(C)C)CC1c1ccc2c(c1)OCO2", "note": "(racemic)", "values": [
      {"measurement": "Activity", "setting": "Mus musculus [4]", "value": "inactive"},
      {"measurement": "Activity", "setting": "Mus musculus [5]", "value": "inactive"},
      {"measurement": "Activity", "setting": "Mus musculus [6]", "value": 16, "unit": "%"}
    ]},
    {"smiles": "CCC1(c2ccccc2)C(=O)NC(=O)NC1=O", "note": "[PHENOBARBITAL]", "values": [
      {"measurement": "Activity", "setting": "Mus musculus [7]", "value": 100, "unit": "%"}
    ]},
    {"smiles": "CC(C)(C)C1=NN(C(=O)c2ccc(Cl)cc2Cl)C(c2ccc3c(c2)OCO3)C1", "note": "(racemic)", "values": [
      {"measurement": "Activity", "setting": "Mus musculus [8]", "value": 33, "unit": "%"},
      {"measurement": "Activity", "setting": "Mus musculus [9]", "value": 1.19, "unit": "%"},
      {"measurement": "Activity", "setting": "Mus musculus [10]", "value": 16, "unit": "%"}
    ]},
    {"smiles": "CC(C)(C)C1=NN(C(=O)Nc2ccc(Cl)cc2Cl)C(c2ccc3c(c2)OCO3)C1", "note": "(racemic)", "values": [
      {"measurement": "Activity", "setting": "Mus musculus [11]", "value": 33, "unit": "%"},
      {"measurement": "Activity", "setting": "Mus musculus [12]", "value": 1.26, "unit": "%"},
      {"measurement": "Activity", "setting": "Mus musculus [13]", "value": "inactive"}
    ]},
    {"smiles": "CC(C)(C)C1=NN(C(=O)c2ccccc2)C(c2ccc3c(c2)OCO3)C1", "note": "(racemic)", "values": [
      {"measurement": "Activity", "setting": "Mus musculus [14]", "value": 66, "unit": "%"},
      {"measurement": "Activity", "setting": "Mus musculus [15]", "value": 1.27, "unit": "%"},
      {"measurement": "Activity", "setting": "Mus musculus [16]", "value": "inactive"}
    ]},
    {"smiles": "CC(C)(C)C(/C=C/c1ccc2c(c1)OCO2)=N/NC(N)=O", "values": [
      {"measurement": "Activity", "setting": "Mus musculus [17]", "value": 50, "unit": "%"},
      {"measurement": "Activity", "setting": "Mus musculus [18]", "value": 1.42, "unit": "%"},
      {"measurement": "Activity", "setting": "Mus musculus [19]", "value": 100, "unit": "%"},
      {"measurement": "ED50", "setting": "Mus musculus [20]", "value": 87, "unit": "mg/kg"},
      {"measurement": "Activity", "setting": "Mus musculus [21]", "value": "Toxic"},
      {"measurement": "Activity", "setting": "Mus musculus [22]", "value": "Toxic"}
    ]},
    {"smiles": "Cc1ccc(NC(=O)N/N=C(\\C=C\\c2ccc3c(c2)OCO3)C(C)(C)C)cc1", "values": [
      {"measurement": "Activity", "setting": "Mus musculus [1]", "value": 16, "unit": "%"},
      {"measurement": "Activity", "setting": "Mus musculus [2]", "value": "0.98 ratio to stiripentol"},
      {"measurement": "Activity", "setting": "Mus musculus [3]", "value": "inactive"}
    ]},
    {"smiles": "CC(C)(C)C1=NN(C(N)=O)C(c2ccc3c(c2)OCO3)C1", "note": "(racemic)", "values": [
      {"measurement": "Activity", "setting": "Mus musculus [17]", "value": 16, "unit": "%"},
      {"measurement": "Activity", "setting": "Mus musculus [18]", "value": 1.11, "unit": "%"},
      {"measurement": "Activity", "setting": "Mus musculus [19]", "value": 66, "unit": "%"}
    ]},
    {"smiles": "Cc1ccc(NC(=O)N2N=C(C(C)(C)C)CC2c2ccc3c(c2)OCO3)cc1", "note": "(racemic)", "values": [
      {"measurement": "Activity", "setting": "Mus musculus [1]", "value": 83, "unit": "%"},
      {"measurement": "Activity", "setting": "Mus musculus [2]", "value": "1.48 ratio to stiripentol"},
      {"measurement": "Activity", "setting": "Mus musculus [3]", "value": "inactive"}
    ]},
    {"smiles": "Cc1ccccc1NC(=O)N1N=C(C(C)(C)C)CC1c1ccc2c(c1)OCO2", "note": "(racemic)", "values": [
      {"measurement": "Activity", "setting": "Mus musculus [1]", "value": 16, "unit": "%"},
      {"measurement": "Activity", "setting": "Mus musculus [2]", "value": "0.95 ratio to stiripentol"},
      {"measurement": "Activity", "setting": "Mus musculus [3]", "value": "inactive"}
    ]},
    {"smiles": "O=C1NC(=O)C(c2ccccc2)(c2ccccc2)N1", "note": "[PHENYTOIN]", "values": [
      {"measurement": "Activity", "setting": "Mus musculus [23]", "value": "inactive"},
      {"measurement": "Activity", "setting": "Mus musculus [24]", "value": 100, "unit": "%"}
    ]}
  ]
}
